For the assay, the system named is 889142-216-R-J1-PDC complex spheroid viability. Briefly: Anticancer human tumor 889142-216-R-J1-PDC patient-derived bladder carcinoma cell line growth inhibition [POLQ]. The note with it: for viability, T/C: stronger effect = lower value. How it is done: Multicellular complex tumor spheroid response to Polymerase (POL) inhibitors (novobiocin, ART-558, RP6685) in combination with a variety of drugs and investigational agents in selected tumor cell lines
The POL inhibitors (novobiocin, ART-558, and RP6685) were evaluated both individually and in combination with standard of care and investigational anticancer small molecules within a complex spheroid model of solid tumors. . Complex spheroids include a stromal component modeled by human endothelial cells (HUVEC) and fibroblasts modeled by human mesenchymal stem cells (MSCs). The concentration ranges selected for each drug and investigational agent were based upon clinically achievable concentrations if the clinical Cmax of the agent was known.
Compounds. The drugs and investigational agents: novobiocin (NSC847541), ART-558 (NSC835418), RP-6685 (NSC848927), peposertib (NSC802822), ceralasertib (NSC780249), elimusertib (NSC800525), camonsertib (NSC841442), AZD-1390 (NSC803789), olaparib (NSC753686), talazoparib (NSC767125), rucaparib (NSC756644), sotorasib (NSC818433), MRTX-1133 (NSC836407), SN-38 (NSC673596), topotecan (NSC609699), epotoside (NSC141540), doxorubicin (NSC123127), gemcitabine (NSC613327), 5-fluorouracil (NSC19893), paclitaxel (NSC125973), vemurafenib (NSC761431), MSA-2 (NSC828583), SN-011 (NSC837082), adavosertib (NSC754352), prexasertib (NSC758257), carboplatin (NSC241240) and oxaliplatin (NSC266046), were obtained from the National Cancer Institute (NCI) Developmental Therapeutics Program Chemical Repository (21). The FDA-approved anticancer drug set is available from the Developmental Therapeutics Program at https://dtp.cancer.gov/organization/dscb/obtaining/. […] The stock solutions were prepared in dimethyl sulfoxide (DMSO, Sigma-Aldrich, St. Louis, MO, cat. D2650), except for the platinum compounds which were prepared in saline (Quality Biological, Gaithersburg, MD, cat. 114-055-101), at 800-fold the tested concentration and stored at -70 degrees C prior to their use. All drugs and investigational agents were tested over a range starting from a high concentration at or near the clinical Cmax and decreasing in half-log increments. If the clinical Cmax for an agent had not been determined, the highest concentration tested was 10 microM, except for SN-38, which was tested at a high concentration of 1 microM.
Cell Culture. All cells were maintained in an incubator at 37 degrees C and 5% CO2 with 95% humidity. The PDC lines were cultured according to standard operating procedures established by the NCI PDMR (https://pdmr.cancer.gov). Table 3 of the manuscript, lists the cell lines along with the number of the three cell types plated to form the mct-spheroids and media for tumor cell growth. After thawing, all PDC lines, except 997537-175-T-J1-PDC and 415267-285-R-J2-PDC, were cultured in Matrigel-coated flasks prepared with a working solution of 1X Ham's F-12 nutrient mix, without supplementation (Thermo Fisher Scientific, cat. 11765054), 100 U/mL penicillin-streptomycin (Thermo Fisher Scientific, cat. 15140122), and 2.5% Matrigel (Corning Inc., Corning, NY, cat. 354248) for the first three passages. The two PDC lines 997537-175-T-J1-PDC and 415267-285-R-J2-PDC were cultured on uncoated flasks. The 857933-349-R-J2-PDC line was cultured in 6C/Colon 1B media containing advanced DMEM/F-12 (Thermo Fisher Scientific, cat. 12634028), 10 mM HEPES (Thermo Fisher Scientific, cat. 15630080), 1X GlutaMAX supplement (Thermo Fisher Scientific, cat. 35050061), 0.1 mg/mL primocin (InvivoGen, San Diego, CA, cat. ant-pm-2), 10% defined fetal bovine serum, heat inactivated (HyClone Laboratories Inc., Logan, UT, cat. SH30070.03HI), 50% L-WRN conditioned media (ATCC, cat. CRL-3276), 1.25 mM N-Acetyl-L-cysteine (Sigma-Aldrich, cat. A9165), 10 mM nicotinamide (Sigma-Aldrich, cat. N0636), 1X B-27 supplement (Thermo Fisher Scientific, cat. 17504044), 1X N-2 supplement (Thermo Fisher Scientific, cat. […]

Setting [1] is: compound alone, run of 01/19/2024.

Values joined by “and” are separate entries in the source; they are usually repeats but may differ in a detail not shown here. Equal values may be shown once.
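Note: spheroids exposed to compounds for seven days.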

The viability, T/C is the ratio of treated to control. As usually defined, the IC50 is the concentration needed to halve the response being measured. In the case of `C#Cc1c(F)ccc2cc(O)cc(-c3ncc4c(N5CC6CCC(C5)N6)nc(OCC56CCCN5CC(F)C6)nc4c3F)c12` (stereo unspecified), the viability, T/C reads like this: (compound 0.0316 µM) 97.4% and 84.7% and 98.7%; (compound 0.1 µM) 87.7% and 85.2% and 98.1%; (compound 0.316 µM) 79.3% and 79.1% and 79.6%; (compound 1 µM) 67.5% and 74.8% and 66.9%; (compound 3.16 µM) 80.7% and 73.1% and 71.4%; (compound 10 µM) 37.6% and 42.5% and 32%. In addition, under “curve of compound”, the IC50 was 6760 nM and 7470 nM and 4990 nM.
As to `CC1COCCN1c1cc(C2(O)CC3CCC(C2)O3)c2cnn(-c3ccn[nH]3)c2n1` (stereo unspecified), the viability, T/C was 57.4% and 69.5% and 69.9% (compound 0.0316 µM); 44% and 49.5% and 54.2% (compound 0.1 µM); 43.3% and 37.3% and 38.3% (compound 0.316 µM); 32.6% and 33.5% and 34.5% (compound 1 µM); 26% and 30.2% and 30.3% (compound 3.16 µM); 14.7% and 11.1% and 17.2% (compound 10 µM). In addition, the IC50 (curve of compound) is 75.7 nM and 135 nM and 153 nM.
As for `CCc1cc2c(N3CCc4c(cc(Cn5ccnc5)cc4-c4cn(C)nc4C(F)(F)F)C3=O)cc(C)nc2c(OC)n1`, the viability, T/C is, setting by setting: (compound 0.0316 µM) 103% and 102% and 111%; (compound 0.1 µM) 116% and 114% and 108%; (compound 0.316 µM) 123% and 119% (2×); (compound 1 µM) 132% and 112% and 96.6%; (compound 3.16 µM) 118% and 106% and 84.9%; (compound 10 µM) 84.3% and 82.2% and 71.1%. The IC50 (curve of compound) is above 10000 nM.
With `Cc1cccc(N(C)C(=O)C2C(O)CCN2c2nc(C)cc(C(F)(F)F)c2C#N)c1` (stereo unspecified), the viability, T/C (compound 3.16 µM) is 94.3% [middle of 13 runs]. In addition, the IC50 was above 10000 nM (compound alone, run of 01/08/2024) and above 10000 nM under setting [1].
With `Nc1ccc(C#CCN(C(=O)Cc2ncc(C(F)(F)F)cc2C(F)(F)F)c2ccc(F)cc2)nn1`, the viability, T/C runs as follows: (compound 0.1 µM) 95.3% [middle of 13 runs]; (compound 10 µM) 102% [middle of 13 runs]. In addition, under setting [1], the IC50 is above 10000 nM.
Regarding `O=C(Nc1ccc(O)c(NS(=O)(=O)c2ccc(F)cc2)c1)c1ccc(-c2ccccc2)cc1`, the viability, T/C is, setting by setting: (compound 0.0316 µM) 91.2% and 109% and 105%; (compound 0.1 µM) 85.2% and 97.7% and 112%; (compound 0.316 µM) 114% and 129% and 88%; (compound 1 µM) 112% and 139% and 119%; (compound 3.16 µM) 101% and 130% and 122%; (compound 10 µM) 75.8% and 76.8% and 71.4%. Further, under “curve of compound”, the IC50 is above 10000 nM.
As to `COc1cccc2c1C(=O)c1c(O)c3c(c(O)c1C2=O)CC(O)(C(=O)CO)CC3OC1CC(N)C(O)C(C)O1` (stereo unspecified) + COC1C(OC(N)=O)C(O)C(Oc2ccc3c(O)c(NC(=O)c4ccc(O)c(CC=C(C)C)c4)c(=O)oc3c2C)OC1(C)C, the IC50 runs as follows: (curve of first compound, second compound 0.0316 µM) 170 nM; (curve of first compound, second compound 0.1 µM) 164 nM; (curve of first compound, second compound 0.316 µM) 173 nM; (curve of first compound, second compound 1 µM) 173 nM; (curve of first compound, second compound 3.16 µM) 254 nM; (curve of first compound, second compound 10 µM) 219 nM. For the same molecule, the viability, T/C runs as follows: (second compound 0.0316 µM, first compound 0.0316 µM) 59.9%; (second compound 0.0316 µM, first compound 0.1 µM) 68.7%; (second compound 0.0316 µM, first compound 0.316 µM) 33.4%; (second compound 0.0316 µM, first compound 1 µM) 2.42%; (second compound 0.0316 µM, first compound 3.16 µM) 0.42%; (second compound 0.0316 µM, first compound 10 µM) 0.92%. Besides, the viability, T/C (second compound 0.1 µM, first compound 0.0316 µM) was 53.4%; the viability, T/C (second compound 0.1 µM, first compound 0.1 µM) was 67.9%; the viability, T/C (second compound 0.1 µM, first compound 0.316 µM) was 36%; the viability, T/C (second compound 0.1 µM, first compound 1 µM) is 4.22%; the viability, T/C (second compound 0.1 µM, first compound 3.16 µM) was 0.75%; the viability, T/C (second compound 0.1 µM, first compound 10 µM) is 0.62%. The viability, T/C (second compound 0.316 µM, first compound 0.0316 µM) was 56.7%; the viability, T/C (second compound 0.316 µM, first compound 0.1 µM) was 67.5%; the viability, T/C (second compound 0.316 µM, first compound 0.316 µM) is 36.8%; the viability, T/C (second compound 0.316 µM, first compound 1 µM) is 1.29%; the viability, T/C (second compound 0.316 µM, first compound 3.16 µM) is 0.94%; the viability, T/C (second compound 0.316 µM, first compound 10 µM) is 0.7%. Further, the viability, T/C (second compound 1 µM, first compound 0.0316 µM) is 60.6%; the viability, T/C (second compound 1 µM, first compound 0.1 µM) is 63.1%; the viability, T/C (second compound 1 µM, first compound 0.316 µM) was 37.3%; the viability, T/C (second compound 1 µM, first compound 1 µM) was 3.64%; the viability, T/C (second compound 1 µM, first compound 3.16 µM) was 0.4%; the viability, T/C (second compound 1 µM, first compound 10 µM) is 1.06%. Also, the viability, T/C was 62.3% (second compound 3.16 µM, first compound 0.0316 µM); 59.1% (second compound 3.16 µM, first compound 0.1 µM); 47.5% (second compound 3.16 µM, first compound 0.316 µM); 2.54% (second compound 3.16 µM, first compound 1 µM); 0.84% (second compound 3.16 µM, first compound 3.16 µM); 0.98% (second compound 3.16 µM, first compound 10 µM). Besides, the viability, T/C runs as follows: (second compound 10 µM, first compound 0.0316 µM) 62%; (second compound 10 µM, first compound 0.1 µM) 62.5%; (second compound 10 µM, first compound 0.316 µM) 44.3%; (second compound 10 µM, first compound 1 µM) 2.05%; (second compound 10 µM, first compound 3.16 µM) 1.06%; (second compound 10 µM, first compound 10 µM) 0.92%.
